Test results as given in paper PMC7808659, “Lotus japonicus karrikin receptors display divergent ligand-binding specificities and organ-dependent redundancy” (PLoS Genetics, 2020).

Key:
LjKAI2b [1] = target: LjKAI2b (Lotus japonicus, UniProt I3S3D1, W158F); assay: differential scanning fluorimetry; intrinsic tryptophan fluorescence; assay type: binding; details: SYPRO Tangerine; response like wild-type LjKAI2a
LjKAI2b [2] = target: LjKAI2b (Lotus japonicus, UniProt I3S3D1, W158F/M161L/L191S); assay: as above; assay type: binding; details: SYPRO Tangerine; shift from 25 uM
From the text: differential scanning fluorimetry; intrinsic tryptophan fluorescence on LjKAI2b | LjKAI2b^[…],[…],F158 gained a strong response to GR24^ent-5DS

Sequence of LjKAI2b (Lotus japonicus, UniProt I3S3D1, W158F) (I3S3D1 entry or part of it W158F): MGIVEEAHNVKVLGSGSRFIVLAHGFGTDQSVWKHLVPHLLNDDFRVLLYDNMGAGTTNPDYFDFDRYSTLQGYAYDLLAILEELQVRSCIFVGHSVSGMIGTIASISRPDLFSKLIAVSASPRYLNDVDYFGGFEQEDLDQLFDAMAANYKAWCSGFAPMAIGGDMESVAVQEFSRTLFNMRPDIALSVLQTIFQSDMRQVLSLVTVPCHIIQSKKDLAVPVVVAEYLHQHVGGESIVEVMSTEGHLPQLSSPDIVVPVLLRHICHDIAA
Sequence of LjKAI2b (Lotus japonicus, UniProt I3S3D1, W158F/M161L/L191S) (I3S3D1 entry or part of it W158F/M161L/L191S): as the sequence (I3S3D1 entry or part of it W158F) above, with M161L, L191S counted along it

SMILES: CC1=C[C@@H](O/C=C2/C(=O)O[C@H]3c4ccccc4C[C@@H]23)OC1=O (racemic) [GR24^ent-5DS]
- differential scanning fluorimetry; intrinsic tryptophan fluorescence (LjKAI2b [1]): LjKAI2b^F158 recapitulated the response of LjKAI2a to GR24^ent-5DS
- differential scanning fluorimetry; intrinsic tryptophan fluorescence (LjKAI2b [2]): LjKAI2b^L161,S191,F158 gained a strong response to GR24^ent-5DS
